{"source": "patent US6753323B2", "about": "“Topical administration of amifostine and related compounds” (MedImmune Oncology, Inc., priority 1998, dated 2004)", "key": {"[1]": {"test_system": "inferior lip mucosa of the mice", "experiment": "Radiation-induced mucositis in mice (inferior lip mucosa model, Parkins score)", "assay_type": "in vivo, C57BL/6 mice", "details": "for maximum grade of mucosal reactions: Parkins score", "experimental": "(§1) The experimental murine model was developed by Parkins et al., Radiother. […] C57BL/6 mice 8-10 weeks old were used and fed with semi-liquid food. Unanesthetized mice were maintained in supine position and irradiated exclusively on the tip of the mouth. […] J. Radiat. Oncol. Biol. Phys., 8, 145-148 (1982). The irradiation was performed with an RT 250 Phillips apparatus, delivering 1.98 Gy/min (200 kV, 20 mA, filter of 0.2 mm Cu). During irradiation, a constant normobaric air renewal was maintained.\n(§2) For the systemic applications, amifostine was dissolved in a […] solution 5 minutes before systemic IP injection of 200 to 400 mg/kg, which was administered 30 minutes before irradiation. A placebo solution of […] was used for a control group. For the topical applications, 50 mg of amifostine was dissolved in 1 mL of a solution containing 1% stearate, 5% H2O, and ammonia to adjust the pH of the solution to 8.8. The topical application was administered to the lip mucosa of the mice for a period of 30 minutes before each radiation session, and was maintained throughout the duration of irradiation. A single dose of 16.5 Gy, and a fractionated schedule delivering 24 Gy in 4 fractions over 2 days (with 8 hour intervals between fractions) were administered.\n(§3) Four groups of eight mice were scored and weighed each day. Any mice having lost 30% or more of the initial weight was sacrificed. The effect of mucositis and weight loss were compared at the maximum of the acute reactions (day 11) among the different groups receiving or not receiving amifostine treatments, using the Mann and Whitney test."}, "[2]": {"experiment": "Radiation-induced mucositis in mice (inferior lip mucosa model, Parkins score)", "assay_type": "in vivo, C57BL/6 mice", "details": "C57BL/6, mouse, in vivo; IP, given before each fraction of radiation, mice; read-out: maximum tolerated dose", "experimental": "as §1, §2, §3"}, "murine skin": {"test_system": "murine skin", "details": "gauze with 10% solution in saline on murine skin 15 to 60 minutes, then 137Cs irradiation; cited from earlier work"}}, "data": [{"smiles": "NCCCNCCSP(=O)(O)O", "note": "[amifostine, S-2-(3-aminopropylamino)ethyl dihydrogen phosphorothioate]", "values": [{"measurement": "maximum grade of mucosal reactions", "setting": "[1]; 200 mg/kg IP 30 min before irradiation, 24 Gy in 4 fractions over 2 days, day 11, ± standard error", "value": "3.5±0.2"}, {"measurement": "maximum grade of mucosal reactions", "setting": "[1]; 400 mg/kg IP 30 min before irradiation, 24 Gy in 4 fractions over 2 days, day 11, ± standard error", "value": "2.5±0.4"}, {"measurement": "grades of mucosal reactions compared to the control group", "setting": "[1]; single dose of 16.5 Gy, IP and topical amifostine groups", "value": "significantly lower"}, {"measurement": "maximum grade of mucositis", "setting": "[1]; topical 50 mg/mL solution pH 8.8 on lip mucosa 30 min before and during irradiation, 24 Gy in 4 fractions over 2 days, day 11, ± standard error", "value": "3.9±0.2"}, {"measurement": "MTD at 2 days", "setting": "[2]", "value": 400, "unit": "mg/kg"}, {"measurement": "radioprotective effect, topically applied", "setting": "murine skin", "value": "no significant radioprotective effects"}]}]}
